Reference: ChEMBL document CHEMBL1201862, “PubChem BioAssay data set” (2004)
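96-well plates; 48 h exposure; 5 concentrations. Endpoints by linear interpolation between flanking doses. Not reached: highest tested concentration assigned. Here, GI50 denotes the concentration required for 50% inhibition of growth.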 Active and inactive are the calls of the source. No stated cut-off is given here; in the data, active = GI50 up to about 1.1 µM and inactive = higher. Where a SMILES comes first, the peptide text is derived from it. [ ]: non-standard residue; d: D form. Phe(4-Cl) = N[CH](Cc1ccc(Cl)cc1)C(=O)O

What was measured:
Assay in all cases: NCI tumour cell line growth inhibition, 48 h
OVCAR-5 = test system: OVCAR-5
M14 = test system: M14
LOX IMVI = test system: LOX IMVI
A498 = test system: A498
U-251 = test system: U-251
HT-29 = test system: HT-29
SK-MEL-28 = test system: SK-MEL-28
Malme-3M = test system: Malme-3M
TK-10 = test system: TK-10
NCI-H226 = test system: NCI-H226
OVCAR-4 = test system: OVCAR-4
NCI-H460 = test system: NCI-H460
SR = test system: SR
CAKI-1 = test system: CAKI-1
NCI-H522 = test system: NCI-H522
COLO 205 = test system: COLO 205
KM-20L2 = test system: KM-20L2

Measured: GI50

CC(C)NC(=O)CCN(C(=O)O)S(=O)(=O)c1ccc(NC(=O)c2ccccc2)cc1
inactive: OVCAR-5 > 100 µM | M14 > 100 µM | LOX IMVI 39.9 µM | A498 > 100 µM | U-251 15.6 µM | HT-29 > 58.1 µM | SK-MEL-28 > 100 µM | Malme-3M > 100 µM | TK-10 > 100 µM | NCI-H226 > 100 µM | OVCAR-4 > 100 µM | NCI-H460 > 43.2 µM | SR > 52.8 µM | CAKI-1 > 100 µM | NCI-H522 > 100 µM | COLO 205 > 40.6 µM | KM-20L2 > 100 µM

COC(=O)C1(F)C(=O)NC(=O)NC1OC (stereo not given)
inactive: OVCAR-5 > 100 µM | LOX IMVI 11.9 µM | A498 > 100 µM | U-251 24.5 µM | HT-29 22.2 µM | SK-MEL-28 59.6 µM | Malme-3M 34.9 µM | TK-10 > 100 µM | NCI-H226 > 100 µM | OVCAR-4 > 100 µM | NCI-H460 3.52 µM | SR > 100 µM | CAKI-1 83.9 µM | NCI-H522 75.5 µM | COLO 205 68.5 µM | KM-20L2 50.9 µM

O=C1c2ccccc2C(Br)(Br)c2ccccc21
inactive: OVCAR-5 > 31.6 µM | M14 > 31.6 µM | LOX IMVI > 31.6 µM | A498 > 10 µM | U-251 > 31.6 µM | HT-29 > 100 µM | SK-MEL-28 > 31.6 µM | Malme-3M > 31.6 µM | TK-10 > 100 µM | NCI-H226 > 31.6 µM | OVCAR-4 1.16 µM | NCI-H460 > 31.6 µM | SR > 31.6 µM | CAKI-1 > 10 µM | NCI-H522 25.4 µM | COLO 205 > 31.6 µM | KM-20L2 > 100 µM

O=c1c2ccc(Br)cc2nc(-c2ccccc2)n1NC1OC(CO)C(O)C(O)C1O (stereo not given)
inactive: OVCAR-5 > 100 µM | M14 > 100 µM | A498 > 100 µM | U-251 > 100 µM | HT-29 > 100 µM | SK-MEL-28 > 100 µM | Malme-3M > 100 µM | TK-10 > 100 µM | NCI-H226 > 100 µM | OVCAR-4 > 100 µM | NCI-H460 > 100 µM | CAKI-1 > 100 µM | NCI-H522 > 100 µM | COLO 205 > 100 µM | KM-20L2 > 100 µM

NC(=S)/N=C(/c1nc2ccc(Cl)cc2nc1O)C(O)c1ccccc1Cl (stereo not given)
inactive: OVCAR-5 > 100 µM | M14 > 100 µM | LOX IMVI > 100 µM | A498 > 100 µM | U-251 > 100 µM | HT-29 > 100 µM | SK-MEL-28 > 100 µM | Malme-3M > 100 µM | TK-10 > 100 µM | NCI-H226 > 100 µM | OVCAR-4 > 100 µM | NCI-H460 > 100 µM | NCI-H522 > 100 µM | COLO 205 > 100 µM | KM-20L2 > 100 µM

CN(C)CC1CCC(=C2CCCC2)C1=O (stereo not given)
inactive: OVCAR-5 17 µM | M14 8.3 µM | LOX IMVI 16.6 µM | A498 18.7 µM | U-251 > 10 µM | HT-29 12.5 µM | SK-MEL-28 14.4 µM | Malme-3M 5.62 µM | TK-10 11.5 µM | NCI-H226 17.9 µM | OVCAR-4 16.7 µM | NCI-H460 21.7 µM | SR 4.47 µM | CAKI-1 > 100 µM | NCI-H522 1.71 µM | COLO 205 14.9 µM | KM-20L2 18.7 µM

CC(=O)OCC(=O)[C@@]1(O)CC[C@H]2[C@@H]3CCC4=CC(=O)[C@H](C)C[C@]4(C)[C@H]3[C@@H](O)C[C@@]21C
inactive: OVCAR-5 > 100 µM | M14 > 100 µM | LOX IMVI > 100 µM | A498 > 100 µM | U-251 > 100 µM | HT-29 > 100 µM | SK-MEL-28 > 100 µM | Malme-3M > 100 µM | TK-10 > 100 µM | NCI-H226 > 100 µM | OVCAR-4 > 100 µM | NCI-H460 > 100 µM | SR > 100 µM | CAKI-1 > 100 µM | NCI-H522 > 100 µM | COLO 205 > 100 µM | KM-20L2 > 100 µM

CC12CCc3ccccc3C1=NNC(=O)C2 (stereo not given)
inactive: OVCAR-5 > 100 µM | M14 > 100 µM | LOX IMVI > 100 µM | A498 > 100 µM | U-251 > 100 µM | HT-29 > 100 µM | SK-MEL-28 > 100 µM | Malme-3M > 100 µM | TK-10 > 100 µM | NCI-H226 > 100 µM | OVCAR-4 > 100 µM | NCI-H460 > 100 µM | CAKI-1 > 100 µM | NCI-H522 > 100 µM | COLO 205 > 100 µM | KM-20L2 > 100 µM

CC(O)C(NC(=O)C(Cc1ccccc1)NC(=O)C(NC(=O)C(CCCCN)NC(=O)C(Cc1c[nH]c2ccccc12)NC(=O)C(Cc1ccc(O)cc1)NC(=O)C(Cc1ccc(Cl)cc1)NC(=O)C(N)Cc1ccccc1)C(C)O)C(N)=O (stereo not given) (H-F[Phe(4-Cl)]YWKTFT-NH2; configuration not given here)
inactive: M14 22.7 µM | A498 18.8 µM | U-251 18.7 µM | HT-29 23.4 µM | SK-MEL-28 20.7 µM | OVCAR-4 23.9 µM | NCI-H460 13.7 µM | CAKI-1 21.2 µM | COLO 205 25.9 µM | KM-20L2 21.2 µM

CC1=C(c2cc(C(=O)Nc3cccc(C(F)(F)F)c3)nc(NC#N)n2)Sc2ccccc2N1
inactive: OVCAR-5 > 100 µM | M14 > 100 µM | LOX IMVI > 100 µM | A498 > 100 µM | U-251 86.5 µM | HT-29 > 100 µM | SK-MEL-28 > 100 µM | Malme-3M > 100 µM | TK-10 > 100 µM | NCI-H226 > 100 µM | OVCAR-4 31.7 µM | NCI-H460 > 100 µM | SR > 100 µM | CAKI-1 > 100 µM | COLO 205 > 100 µM | KM-20L2 > 100 µM

CC1=NN(C(=O)c2ccc(Cl)cc2)C(=O)/C1=C/c1ccc(O)cc1
inactive: OVCAR-5 > 100 µM | M14 > 100 µM | LOX IMVI > 100 µM | A498 > 100 µM | U-251 > 100 µM | HT-29 > 100 µM | SK-MEL-28 > 100 µM | Malme-3M > 100 µM | TK-10 > 100 µM | NCI-H226 > 100 µM | OVCAR-4 > 100 µM | NCI-H460 > 100 µM | CAKI-1 > 100 µM | NCI-H522 > 100 µM | COLO 205 > 100 µM | KM-20L2 > 100 µM

CS(=O)(=O)NNS(=O)(=O)c1ccc(Cl)cc1
inactive: M14 > 100 µM | LOX IMVI > 100 µM | A498 > 100 µM | U-251 > 100 µM | HT-29 > 100 µM | Malme-3M > 100 µM | TK-10 > 100 µM | NCI-H226 11 µM | OVCAR-4 > 100 µM | NCI-H460 > 100 µM | SR 62.8 µM | CAKI-1 36.7 µM | NCI-H522 90.8 µM | COLO 205 > 100 µM | KM-20L2 > 100 µM

COC(=N)c1csc(C2OC(CO)C(O)C2O)n1 (stereo not given)
inactive: OVCAR-5 > 100 µM | M14 > 100 µM | LOX IMVI > 100 µM | A498 > 100 µM | U-251 > 100 µM | HT-29 > 100 µM | SK-MEL-28 > 100 µM | Malme-3M > 100 µM | TK-10 > 100 µM | NCI-H226 > 100 µM | OVCAR-4 > 100 µM | NCI-H460 > 100 µM | CAKI-1 > 100 µM | NCI-H522 > 100 µM | COLO 205 > 100 µM | KM-20L2 > 100 µM

COc1ccc2c(c1)NC1(O)c3ccccc3C(=O)C21O (stereo not given)
inactive: M14 > 100 µM | LOX IMVI > 100 µM | A498 > 100 µM | U-251 > 100 µM | HT-29 > 100 µM | SK-MEL-28 > 100 µM | Malme-3M > 100 µM | TK-10 > 100 µM | NCI-H226 > 100 µM | NCI-H460 > 100 µM | SR > 100 µM | CAKI-1 > 100 µM | NCI-H522 > 100 µM | COLO 205 > 100 µM | KM-20L2 > 100 µM

CCOC(=O)c1c(-c2ccccc2)oc(-c2ccccc2)c1C(=O)OCC
inactive: OVCAR-5 > 100 µM | M14 > 100 µM | LOX IMVI > 100 µM | A498 60.7 µM | U-251 > 100 µM | HT-29 22.6 µM | SK-MEL-28 > 100 µM | Malme-3M > 100 µM | TK-10 > 100 µM | NCI-H226 > 100 µM | SR 68.2 µM | NCI-H522 > 100 µM | COLO 205 99.1 µM | KM-20L2 38.9 µM

CCCCC#COP(=O)(OCC)OCC
inactive: OVCAR-5 > 100 µM | M14 > 100 µM | LOX IMVI > 100 µM | A498 > 100 µM | U-251 > 100 µM | HT-29 > 100 µM | Malme-3M > 100 µM | TK-10 > 100 µM | NCI-H226 > 100 µM | OVCAR-4 > 100 µM | NCI-H460 > 100 µM | SR > 100 µM | CAKI-1 > 100 µM | NCI-H522 > 100 µM | COLO 205 > 100 µM | KM-20L2 > 100 µM

COc1ccc2c(c1)[n+]([O-])c(C(=O)CC(=O)C(=O)Nc1cccc(Cl)c1C)c(C)[n+]2[O-]
inactive: OVCAR-5 > 100 µM | M14 > 100 µM | LOX IMVI > 100 µM | A498 > 100 µM | U-251 > 100 µM | HT-29 83 µM | SK-MEL-28 > 100 µM | Malme-3M > 100 µM | TK-10 > 100 µM | NCI-H226 > 100 µM | OVCAR-4 > 100 µM | NCI-H460 > 100 µM | SR 34 µM | CAKI-1 > 100 µM | NCI-H522 26.2 µM | COLO 205 53.7 µM | KM-20L2 > 100 µM
